Numbers after ± are expanded uncertainties.
Experiment: molar enthalpy of vaporization or sublimation
Conditions: 305.12 K; Liquid; Static calorimetry

Structure (SMILES): C=CC(C)(C)O [2-methyl-3-buten-2-ol]
- molar enthalpy: 46.9 ± 1.6 kJ/mol
